Series [1] has as its system site A of the human apo A-I promoter. In words: luciferase reporter A3TK (three copies of site A upstream of TK promoter) in HepG2 cells overexpressing hFXR. The series is classed as cell-based. On the procedure: (§1) HepG2 cells were transfected by lipofection with 300 ng of pCDNA3-hFXR vector for expression of hFXR and 1 μg of the indicated reporter vectors allowing expression of a luciferase reporter gene under the control wild type or mutated fragment −254/+91 of the human apo A-I gene promoter, under the control of the herpes simplex virus thymidine kinase promoter or under the control of three copies of site A or site C of the human apo A-I gene cloned upstream of the herpes simplex virus thymidine kinase promoter. […] The construct containing fragment −254/+91 of the apo A-I promoter in which site A is mutated was obtained by directed mutagenesis of site A, in the wild type construct, using the Quick Change Site directed mutagenesis kit (Stratagene, La Jolla, Calif., USA), oligonucleotide 5′-[…]-3′ (SEQ ID NO: 4) and the complementary oligonucleotide. The construct containing fragment −254/+91 of the apo A-I promoter in which site C is mutated was obtained by directed mutagenesis of site C, in the wild type construct, using the Quick Change Site directed mutagenesis kit (Stratagene, La Jolla, Calif., USA), oligonucleotide 5′-[…]-3′ (SEQ ID NO: 3) and the complementary oligonucleotide. […]

The subject of series [2] is herpes simplex virus thymidine kinase promoter. In words: luciferase reporter TkpGL3 (TK promoter only) in HepG2 cells overexpressing hFXR. It counts as cell-based, human. As to conditions: overexpression of hFXR, CDCA. How it is done: as §1
The next series deals with human apo A-I promoter. In words: luciferase reporter under human apo A-I promoter fragments in HepG2 cells overexpressing hFXR. It counts as cell-based. How it is done: HepG2 cells were cotransfected by lipofection with 300 ng of pCDNA3-hFXR vector for FXR expression, 300 ng of pSG5-mRXRα vector and 1 μg of the indicated reporter vectors enabling expression of the luciferase reporter gene under the control of fragments −254/+91, −192/+91 and −40/+91 of the apo A-I promoter. […] Total DNA was adjusted to 2 μg using plasmid pBKS+. After a 3 hour transfection, cells were incubated in the culture medium with bile acids at the indicated concentrations for 36 hours.
HepG2 cells were transfected by lipofection with 300 ng of pCDNA3-hFXR vector for expression of hFXR and 1 μg of the indicated reporter vectors allowing expression of a luciferase reporter gene under the control wild type or mutated fragment −254/+91 of the human apo A-I gene promoter, under the control of the herpes simplex virus thymidine kinase promoter or under the control of three copies of site A or site C of the human apo A-I gene cloned upstream of the herpes simplex virus thymidine kinase promoter. […] The construct containing fragment −254/+91 of the apo A-I promoter in which site A is mutated was obtained by directed mutagenesis of site A, in the wild type construct, using the Quick Change Site directed mutagenesis kit (Stratagene, La Jolla, Calif., USA), oligonucleotide 5′-[…]-3′ (SEQ ID NO: 4) and the complementary oligonucleotide. The construct containing fragment −254/+91 of the apo A-I promoter in which site C is mutated was obtained by directed mutagenesis of site C, in the wild type construct, using the Quick Change Site directed mutagenesis kit (Stratagene, La Jolla, Calif., USA), oligonucleotide 5′-[…]-3′ (SEQ ID NO: 3) and the complementary oligonucleotide. The construct containing fragment −254/+91 of the apo A-I promoter in which sites A and C are mutated was obtained by directed mutagenesis of site A, in the Cmut construct, using the Quick Change Site directed mutagenesis kit (Stratagene, La Jolla, Calif., USA), oligonucleotide 5′-[…]-3′ (SEQ ID NO: 4) and the complementary oligonucleotide. The construct denoted TkpGL3 containing the herpes simplex virus thymidine kinase promoter cloned upstream of a luciferase reporter gene has been previously described (Raspé et al., J. Biol. Chem., 2001, 276 (4): 2865-2871). The C3TK construct containing three copies of site C of the human apo A-I promoter cloned upstream of the herpes simplex virus thymidine kinase promoter and the luciferase reporter gene was obtained by oriented cloning of three copies of the double-stranded oligonucleotide corresponding to the wild type site C sequence (SEQ ID NO: 1) into the SmaI site of vector TkpGL3. The A3TK construct containing three copies of site A of the human apo A-I promoter cloned upstream of the herpes simplex virus thymidine kinase promoter and the luciferase reporter gene was obtained by oriented cloning of three copies of the double-stranded oligonucleotide corresponding to the wild type site A sequence (SEQ ID NO: 2) into the SmaI site of vector TkpGL3. Total DNA was adjusted to 2 μg using plasmid pBKS+. After a 3 hour transfection, cells were incubated in the culture medium with the bile acids at the indicated concentrations for 36 hours.
(§2) HepG2 were cotransfected as described in example 5. Cellular mRNA was obtained as described above in example 2.

Series [3] has as its system site C of the human apo A-I promoter. Description: luciferase reporter C3TK (three copies of site C upstream of TK promoter) in HepG2 cells overexpressing hFXR. It counts as cell-based. How it is done:
as §1
For orientation: A reporter such as luciferase makes a cellular process visible.

The subject of series [4] is apo A-I expression in HepG2 cells. In words: apo A-I mRNA expression in HepG2 cells (Northern blot). The series is classed as cell-based, human. How it is done:
HepG2 cells were grown in DMEM medium supplemented with 10% fetal calf serum, penicillin/streptomycin, sodium pyruvate and nonessential amino acids and incubated at 37° C in a humidified 5% CO2/95% air atmosphere. […] Total RNA was extracted as previously described (Chomczynski et al., Anal. Biochem., 1987, 162 (1): 156-9) and quantified by Northern Blot hybridization (Peters, J. Biol. Chem., 1997, 272 (43): 27307-12) using human apo A-I and 28S as probes (Peters, J. Biol. Chem., 1997, 272 (43): 27307-12).
HepG2 cells were grown in DMEM medium supplemented with 10% fetal calf serum, penicillin/streptomycin, sodium pyruvate and nonessential amino acids and incubated at 37° C. in a humidified 5% CO2/95% air atmosphere. Total RNA was extracted as previously described (Chomczynski et al., Anal. Biochem., 1987, 162 (1): 156-9) and quantified by Northern Blot hybridization (Peters, J. Biol. Chem., 1997, 272 (43): 27307-12) using human apo A-I and 28S as probes (Peters, J. Biol. Chem., 1997, 272 (43): 27307-12).
as §2

For the next series, the target named is T1, FXR (Homo sapiens, UniProt Q96RI1).
T1 sequence (Q96RI1 1-472 isoform Q96RI1-2): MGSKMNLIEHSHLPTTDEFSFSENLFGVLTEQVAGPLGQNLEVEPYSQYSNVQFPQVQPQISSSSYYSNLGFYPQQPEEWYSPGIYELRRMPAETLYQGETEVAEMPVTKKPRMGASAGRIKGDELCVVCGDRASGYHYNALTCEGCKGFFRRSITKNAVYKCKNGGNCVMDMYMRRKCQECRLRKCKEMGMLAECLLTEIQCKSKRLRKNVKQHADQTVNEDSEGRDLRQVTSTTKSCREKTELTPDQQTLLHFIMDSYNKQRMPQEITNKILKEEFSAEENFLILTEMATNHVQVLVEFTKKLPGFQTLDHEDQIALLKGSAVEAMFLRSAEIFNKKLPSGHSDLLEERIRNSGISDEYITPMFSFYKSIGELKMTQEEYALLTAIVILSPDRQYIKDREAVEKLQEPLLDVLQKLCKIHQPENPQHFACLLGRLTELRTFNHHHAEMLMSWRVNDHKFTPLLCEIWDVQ
As to conditions: FIG. 4.

Series [5] relates to mice transgenic for the human apo A-I gene. As to conditions: diet rich in TCA 0.5% m/m, one week. From the text:
Effect of TCA on Plasma Concentrations of Cholesterol and Apo A-I and on Hepatic Expression of apo A-I in Mice Transgenic for the Human apo A-I Gene (FIG. 1)
Example 1 illustrates the effect of a diet rich in taurocholate on serum cholesterol and human apo A-I levels and on lipid profile and hepatic expression of human apo A-I in transgenic mice expressing the apo A-I gene in a C57BL genetic background.
Ten transgenic mice expressing the apo A-I gene in a C57BL genetic background (IFFA-CREDO, L'Arbresle, France) were genotyped by PCR and divided into two groups of five animals. The first group received a normal diet for one week while the second was given a diet rich in TCA (taurocholic acid, 0.5% m/m). Blood was collected after a 12 hour fast by retroorbital puncture under barbital anesthesia. Serum samples were collected and stored at −20° C. pending analysis. After one week of dietary treatment, animals were sacrificed and liver specimens were collected and frozen for analysis. Human apo A-I levels in serum were measured before and after the diet as previously described (Peters, J. Biol. Chem., 1997, 272 (43): 27307-12). Serum cholesterol and lipid profiles after FPLC were measured as previously described (Raspé et al., J. Lipid Res., 1999, 40 (11): 2099-2110). Total RNA was extracted from liver specimens as previously described (Chomczynski et al., Anal. Biochem., 1987, 162 (1): 156-9) and quantified by Northern Blot hybridization (Peters, 1997) using human apo A-I and 28S as probes (Peters, J. Biol. Chem., 1997, 272 (43): 27307-12).

Series [6] concerns FXR (hFXR) (Homo sapiens). Description: cell_activity. As to conditions: 1 µM GW4064, HepG2.
Setting [7] is: overexpression of hFXR and mRXRα, CDCA, 36 hours.
Where [8] appears, read: overexpression of hFXR, panel A.
Setting [9] is: hFXR overexpression, 1 μM GW4064, in words.

As to `C[C@H](CCC(=O)O)[C@H]1CC[C@H]2[C@@H]3[C@H](O)C[C@@H]4C[C@H](O)CC[C@]4(C)[C@H]3CC[C@]12C` [CDCA, chenodeoxycholic acid], the “activity of construct A3TK” value in series [1] (overexpression of hFXR, CDCA) is “activated”. Moreover, the “activity of construct TkpGL3” value in series [2] is on record as “not affected”. In the series with human apo A-I promoter (setting [7]), the “activity of fragment −40/+91 (minimal promoter) of the apo A-I gene promoter” value was “not”, the “activity of fragment −192/+91 of the apo A-I gene promoter” value is listed as “represses” and the “activity of fragment −254/+91 of the apo A-I gene promoter” value was “represses”. Besides, in the series on human apo A-I promoter (overexpression of hFXR, CDCA), the “activity of fragment −254/+91 with site A mutated (A mut construct)” value was “represses” and the “activity of wild type fragment −254/+91 (wt construct)” value was “represses”. In the series on human apo A-I promoter (setting [8]), the “activity of fragment −254/+91 with site C mutated (C mut construct)” value was “transcriptional activation”; the “activity of fragment −254/+91 with sites A and C mutated (AC mut construct)” value is on record as “loss of response”. Moreover, the “activity of construct C3TK” value in series [3] (overexpression of hFXR, CDCA) is given as “represses”. The “apo A-I expression in HepG2 cells” value in series [4] (50 μM) is “considerably reduces”. In series [4] (CDCA 50 μM, 12-h preincubation with actinomycin D (5 g/ml)), the “effect on apo A-I expression after actinomycin D preincubation” value is on record as “offset”. In series [4] (increasing concentrations), the “apo A-I expression in HepG2 cells” value is “reduce”.

In the case of `CC(C)c1onc(-c2c(Cl)cccc2Cl)c1COc1ccc(/C=C/c2cccc(C(=O)O)c2)c(Cl)c1` [GW4064], the “activity of construct A3TK” value in series [1] (hFXR overexpression, GW4064, in words) is given as “activated”. The “activity of fragment −254/+91 of the human apo A-I promoter (construct ABC)” value in the series on human apo A-I promoter (setting [9]) is “represses”. Moreover, the “activity of construct C3TK” value in series [3] (setting [9]) is recorded as “represses”. Also, the “apo A-I expression in HepG2 cells” value in series [4] (GW4064, in words) is listed as “markedly reduces”.

Consider `C[C@H](CCC(=O)NCCS(=O)(=O)O)[C@H]1CC[C@H]2[C@@H]3[C@H](O)C[C@@H]4C[C@H](O)CC[C@]4(C)[C@H]3C[C@H](O)[C@]12C` [TCA, taurocholic acid], for which the FXR activation entry at FXR is recorded as “activate”. In series [4] (increasing concentrations), the “apo A-I expression in HepG2 cells” value is on record as “reduce”. In series [5], the “hepatic expression of apo A-I” value is given as “reduces”, the “plasma concentrations of apo A-I” value was “reduces” and the “plasma concentrations of cholesterol” value is on record as “reduces”.

Take apo A-I promoter -254/+91: in series [6] (construct ABC, repression), the activity (% of control luciferase) came to 56.8.

apo A-I promoter site A wt showed an activity (% of control luciferase) in series [6] (A3TK, three copies, activation) of 1120.

With apo A-I promoter site C wt, in series [6] (C3TK, three copies, repression), the activity (% of control luciferase) turned out to be 61.8.
